In US8435978B2, “Substituted sulfonamide compounds” (Gruenenthal GmbH, priority 2006, dated 2013):

Tests used:
[1] = molecular target: T1, human B1R receptor (Homo sapiens, UniProt P46663); test: Functional study on the bradykinin receptor 1 (B1R), FLIPR Ca2+ assay, hB1R cells; format: cell-based; details: agonist Lys-Des-Arg9-bradykinin 0.5 nM, % inhibition compared with the maximum achievable inhibition; for inhibition at 10 µM: CHO-K1, test substance 10 μM, read-out: B1R Antagonism, human [10 μM] % Inhibition; for B1R Antagonism, human [10 μM] % Inhibition: test substance 10 μM, hB1R CHO K1 cells
T1 construct: host or cells: CHO K1 cells (Chinese hamster ovary), stably transfected
T1 sequence (P46663 1-353): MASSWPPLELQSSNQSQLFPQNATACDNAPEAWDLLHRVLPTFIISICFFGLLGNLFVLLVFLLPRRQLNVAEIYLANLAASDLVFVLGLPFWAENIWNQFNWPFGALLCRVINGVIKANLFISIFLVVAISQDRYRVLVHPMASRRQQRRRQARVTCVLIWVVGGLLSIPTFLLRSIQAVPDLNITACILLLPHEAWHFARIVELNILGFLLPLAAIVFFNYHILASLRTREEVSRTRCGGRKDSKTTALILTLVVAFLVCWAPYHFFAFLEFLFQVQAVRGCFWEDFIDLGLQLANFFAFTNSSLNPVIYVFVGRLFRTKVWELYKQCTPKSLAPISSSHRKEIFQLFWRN
Summary of the method: (§1)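 FLIPR Ca2+ assay in recombinant CHO K1 cells (human or rat B1R), Fluo-4 dye; 10 μM compound, 10 min, then EC-level agonist per species (0.5 nM Lys-Des-Arg9-BK human / 100 nM Des-Arg9-BK rat). Output: % inhibition vs maximum.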

[2] = molecular target: T2, B1R receptor of the rat (Rattus norvegicus, UniProt P97583); test: Functional study on the bradykinin receptor 1 (B1R), FLIPR Ca2+ assay, rB1R cells; format: cell-based; details: agonist Des-Arg9-bradykinin 100 nM, % inhibition compared with the maximum achievable inhibition; for inhibition at 10 µM: CHO-K1, test substance 10 μM, read-out: B1R Antagonism, rat [10 μM] % Inhibition; for B1R Antagonism, rat [10 μM] % Inhibition: test substance 10 μM, rB1R CHO K1 cells
T2 construct: host or cells: CHO K1 cells (Chinese hamster ovary), stably transfected
T2 sequence (P97583 1-337): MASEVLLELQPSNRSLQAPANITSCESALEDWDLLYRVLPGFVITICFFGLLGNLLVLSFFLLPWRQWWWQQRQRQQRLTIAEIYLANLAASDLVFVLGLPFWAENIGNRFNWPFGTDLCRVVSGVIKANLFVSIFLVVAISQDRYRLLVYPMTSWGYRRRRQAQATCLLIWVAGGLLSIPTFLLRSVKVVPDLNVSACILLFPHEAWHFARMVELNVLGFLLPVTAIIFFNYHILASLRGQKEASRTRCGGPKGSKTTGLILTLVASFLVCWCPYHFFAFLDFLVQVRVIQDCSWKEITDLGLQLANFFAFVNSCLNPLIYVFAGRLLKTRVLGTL
Summary of the method: as §1

SMILES | inhibition at 10 µM [1] | inhibition at 10 µM [2] | B1R Antagonism, human [10 μM] % Inhibition [1] | B1R Antagonism, rat [10 μM] % Inhibition [2]
COc1cc(C)c(S(=O)(=O)N2CCCCC2CCOCC(=O)N2CCN(C3CCN(C)CC3)CC2)c(C)c1 (stereo not shown) [Example 164, 2-(2-(1-(4-methoxy-2,6-dimethylphenylsulfonyl)piperidin-2-yl)ethoxy)-1-(4-(1-methylpiperidin-4-yl)piperazin-1-yl)ethanone] | 99.6% | 101% |  | 
CN1CCN(C(=O)COCC2CCCCN2S(=O)(=O)c2c(Cl)cc(Cl)cc2Cl)CC1 (stereo not shown) [Example 393, 1-(4-methylpiperazin-1-yl)-2-((1-(2,4,6-trichlorophenylsulfonyl)piperidin-2-yl)methoxy)ethanone] | 104% | 101% |  | 
COc1cc(C)c(S(=O)(=O)N2CCCCC2COCC(=O)N2CCC(NCC(c3cccnc3)N3CCOCC3)CC2)c(C)c1 (stereo not shown) [Example 136, 2-((1-(4-methoxy-2,6-dimethylphenylsulfonyl)piperidin-2-yl)methoxy)-1-(4-(2-morpholin-2-(pyridin-3-yl)ethylamino)piperidin-1-yl)ethanone] |  |  | 103.97% | 98.94%
CN1CCC(CN2CCN(C(=O)COC[C@@H]3Cc4ccccc4CN3S(=O)(=O)c3ccc(Cl)cc3Cl)CC2)CC1 [Example 184, (S)-2-((2-(2,4-dichlorophenylsulfonyl)-1,2,3,4-tetrahydroisoquinolin-3-yl)methoxy)-1-(4-((1-methylpiperidin-4-yl)methyl)piperazin-1-yl)ethanone] | 105% | 99% |  | 
COc1cc(C)c(S(=O)(=O)N2CCCC2COCC(=O)NCc2ccc(N3CCN(C)CC3)cc2)c(C)c1 (stereo not shown) [Example 18, 2-[1-(4-methoxy-2,6-dimethyl-phenylsulfonyl)-pyrrolidin-2-ylmethoxy]-N-[4-(4-methyl-piperazin-1-yl)-benzyl]-acetamide] | 95.3% | 110% |  | 
COc1cc(C)c(S(=O)(=O)N2CCCCC2COCC(=O)NCc2ccccc2N2CCN(C)CC2)c(C)c1 (stereo not shown) [Example 432, 2-((1-(4-methoxy-2,6-dimethylphenylsulfonyl)piperidin-2-yl)methoxy)-N-(2-(4-methylpiperazin-1-yl)benzyl)acetamide] | 94% | 100% |  | 
COc1cc(C)c(S(=O)(=O)N2CCCCC2COCC(=O)N2CCN(Cc3ccc(Br)cc3)CC2)c(C)c1 (stereo not shown) [Example 382, 1-(4-(4-bromobenzyl)piperazin-1-yl)-2-((1-(4-methoxy-2,6-dimethylphenylsulfonyl)piperidin-2-yl)methoxy)ethanone] | 103% | 101% |  | 
COc1cc(C)c(S(=O)(=O)N2CCCCC2COCC(=O)N2CCC(N3CCn4ccnc4C3)CC2)c(C)c1 (stereo not shown) [Example 144, 1-(4-(5,6-dihydroimidazo[1,2-a]pyrazin-7(8H)-yl)piperidin-1-yl)-2-((1-(4-methoxy-2,6-dimethylphenylsulfonyl)piperidin-2-yl)methoxy)ethanone] | 101% | 98.2% |  | 
O=C(COCC1CCCCN1S(=O)(=O)c1cccc(C(F)(F)F)c1)N1CCCCC1c1cncc(Br)c1 (stereo not shown) [Example 224, 1-(2-(5-bromopyridin-3-yl)piperidin-1-yl)-2-((1-(3-(trifluoromethyl)phenylsulfonyl)piperidin-2-yl)methoxy)ethanone] | 72.1% | 52.8% |  | 
COc1cc(C)c(S(=O)(=O)N2CCCC2COCC(=O)N2CC[C@@H](N(C)C)C2)c(C)c1 (stereo partly drawn) [Example 476, 1-((R)-3-(dimethylamino)pyrrolidin-1-yl)-2-((1-(4-methoxy-2,6-dimethylphenylsulfonyl)pyrrolidin-2-yl)methoxy)ethanone] | 90.1% | 100% |  | 

Continued, values first:

inhibition at 10 µM [1] | inhibition at 10 µM [2] | B1R Antagonism, human [10 μM] % Inhibition [1] | B1R Antagonism, rat [10 μM] % Inhibition [2] | SMILES
99.4% | 99.3% |  |  | COc1cc(C)c(S(=O)(=O)N2CCCCC2COCC(=O)N2CCN(Cc3ccc4nccnc4c3)CC2)c(C)c1 (stereo not shown) [Example 166, 2-((1-(4-methoxy-2,6-dimethylphenylsulfonyl)piperidin-2-yl)methoxy)-1-(4-(quinoxalin-6-ylmethyl)piperazin-1-yl)ethanone]
102% | 98.7% |  |  | COc1cc(C)c(S(=O)(=O)N2CCCCC2COCC(=O)N2CCC(N3CCc4cc(F)ccc4C3)CC2)c(C)c1 (stereo not shown) [Example 200, 1-(4-(6-fluoro-3,4-dihydroisoquinolin-2(1H)-yl)piperidin-1-yl)-2-((1-(4-methoxy-2,6-dimethylphenylsulfonyl)piperidin-2-yl)methoxy)ethanone]
106% | 101% |  |  | O=C(COCC1CCCN1S(=O)(=O)c1c(Cl)cc(Cl)cc1Cl)N1CCC(CCN2CCCCC2)CC1 (stereo not shown) [Example 331, 1-(4-(2-(piperidin-1-yl)ethyl)piperidin-1-yl)-2-((1-(2,4,6-trichlorophenylsulfonyl)pyrrolidin-2-yl)methoxy)ethanone]
102% | 102% |  |  | CN1CCC(N2CCN(C(=O)COCC3CCCCN3S(=O)(=O)c3c(Cl)cc(C(F)(F)F)cc3Cl)CC2)CC1 (stereo not shown) [Example 108, 2-((1-(2,6-dichloro-4-(trifluoromethyl)phenylsulfonyl)piperidin-2-yl)methoxy)-1-(4-(1-methylpiperidin-4-yl)piperazin-1-yl)ethanone]
59.1% | 85.9% |  |  | COc1cc(C)c(S(=O)(=O)N2CCCC2COCC(=O)N2CCCC2c2ccccn2)c(C)c1 (stereo not shown) [Example 271, 2-((1-(4-methoxy-2,6-dimethylphenylsulfonyl)pyrrolidin-2-yl)methoxy)-1-(2-(pyridin-2-yl)pyrrolidin-1-yl)ethanone]
104% | 102% |  |  | COc1cc(C)c(S(=O)(=O)N2CCCCC2COCC(=O)N2CCC(N3CCc4cnccc4C3)CC2)c(C)c1 (stereo not shown) [Example 100, 1-(4-(3,4-dihydro-2,6-naphthyridin-2(1H)-yl)piperidin-1-yl)-2-((1-(4-methoxy-2,6-dimethylphenylsulfonyl)piperidin-2-yl)methoxy)ethanone]
48% | 105% |  |  | COc1cccc(N2CCN(C(=O)COCC3CCCCN3S(=O)(=O)c3c(C)cc(C)cc3C)CC2)c1 (stereo not shown) [Example 77, 1-[4-(3-methoxy-phenyl)-piperazin-1-yl]-2-[1-(2,4,6-trimethyl-phenylsulfonyl)-piperidin-2-ylmethoxy]-ethanone]
104% | 100% |  |  | COc1cc(C)c(S(=O)(=O)N2CCCCC2COCC(=O)N(C2CC2)C2CCN(Cc3ccccc3)CC2)c(C)c1 (stereo not shown) [Example 342, N-(1-benzylpiperidin-4-yl)-N-cyclopropyl-2-((1-(4-methoxy-2,6-dimethylphenylsulfonyl)piperidin-2-yl)methoxy)acetamide]
102% | 102% |  |  | COc1cc(C)c(S(=O)(=O)N2CCCCC2COCC(=O)N2CCC(COc3ccncc3)CC2)c(C)c1 (stereo not shown) [Example 188, 2-((1-(4-methoxy-2,6-dimethylphenylsulfonyl)piperidin-2-yl)methoxy)-1-(4-((pyridin-4-yloxy)methyl)piperidin-1-yl)ethanone]
107% | 101% |  |  | O=C(COCC1CCCN1S(=O)(=O)c1c(Cl)cc(Cl)cc1Cl)N(C1CC1)C1CCN(Cc2ccccc2)CC1 (stereo not shown) [Example 334, N-(1-benzylpiperidin-4-yl)-N-cyclopropyl-2-((1-(2,4,6-trichlorophenylsulfonyl)pyrrolidin-2-yl)methoxy)acetamide]
 |  | 58.57% | 26.41% | CN(C)c1ccc(C2CCCCCN2C(=O)COCC2CCCCN2S(=O)(=O)c2cccc3ccccc23)cc1 (stereo not shown) [Example 63, 1-[2-(4-dimethylamino-phenyl)-azepan-1-yl]-2-[1-(naphthyl-1-sulfonyl)-piperidin-2-ylmethoxy]-ethanone]
103% | 99.3% |  |  | CN1CCN(C(=O)COCC2CCCCN2S(=O)(=O)c2c(Cl)cccc2Cl)C(c2ccccc2)C1 (stereo not shown) [Example 455, 2-((1-(2,6-dichlorophenylsulfonyl)piperidin-2-yl)methoxy)-1-(4-methyl-2-phenylpiperazin-1-yl)ethanone]
80.8% | 102% |  |  | COc1cc(C)c(S(=O)(=O)N2CCCCC2COCC(=O)N2CCC[C@H]2CN2CCCC2)c(C)c1 (stereo partly drawn) [Example 374, 2-((1-(4-methoxy-2,6-dimethylphenylsulfonyl)piperidin-2-yl)methoxy)-1-((S)-2-(pyrrolidin-1-ylmethyl)pyrrolidin-1-yl)ethanone]
